Our source for the IC50 values is BindingDB's records for doi:10.7270/Q2V40ST1 (Burnham Center For Chemical Genomics, 2012).

Structures are written as SMILES. pIC50: −log10 of the molar value.

The target in the experiment is Polyadenylate-binding protein 1 (Homo sapiens, UniProt P11940). The experiment can be described thus: MLLE binding blockers, Cy5 peptide tracer – biochemical, fluorescence polarization, Cy5-PAM2 peptide, secondary, miRNA deadenylation inhibitor project, dose response (AID 602260).
Chain of Polyadenylate-binding protein 1 (P11940 whole entry): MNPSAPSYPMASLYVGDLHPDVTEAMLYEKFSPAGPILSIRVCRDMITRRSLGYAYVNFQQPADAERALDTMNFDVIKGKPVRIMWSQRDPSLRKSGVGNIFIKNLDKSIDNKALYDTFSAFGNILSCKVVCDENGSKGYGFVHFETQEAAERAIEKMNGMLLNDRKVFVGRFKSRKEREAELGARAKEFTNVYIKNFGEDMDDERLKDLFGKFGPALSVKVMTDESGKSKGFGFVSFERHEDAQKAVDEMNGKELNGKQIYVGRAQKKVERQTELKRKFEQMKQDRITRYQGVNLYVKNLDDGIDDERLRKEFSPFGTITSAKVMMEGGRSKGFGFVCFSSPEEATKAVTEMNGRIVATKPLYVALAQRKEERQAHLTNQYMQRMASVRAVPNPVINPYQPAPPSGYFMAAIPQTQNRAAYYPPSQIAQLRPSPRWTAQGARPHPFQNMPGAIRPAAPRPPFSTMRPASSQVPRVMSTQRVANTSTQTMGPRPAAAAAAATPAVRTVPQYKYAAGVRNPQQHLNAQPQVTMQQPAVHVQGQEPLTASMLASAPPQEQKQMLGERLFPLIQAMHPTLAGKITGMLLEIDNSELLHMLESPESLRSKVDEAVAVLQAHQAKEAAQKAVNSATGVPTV

In turn, `CCOC(=O)c1ccc(NC(=O)Cc2sc3ncnn3c2O)cc1` had a pIC50 of less than 4.18.
`O=C(O)CSc1cc(O)n(-c2ccc(Cl)c(Cl)c2)c1O`: the negative-log IC50 (pIC50) is less than 4.18.
`Cc1ccc(NC(=O)Cc2sc(=O)n(-c3ccccc3)c2O)cc1` had a pIC50 of less than 4.18.
The compound `COc1cc2c(cc1OC)C(c1ccccc1O)N(c1cc(O)n(-c3ccccc3)c1O)CC2` (stereo not drawn) gave a pIC50 of less than 4.18.
The same measure for `O=C(Cc1sc(=O)n(-c2ccccc2)c1O)Nc1ccccc1` [2-(2,4-diketo-3-phenyl-thiazolidin-5-yl)-N-phenyl-acetamide]: less than 4.18; for `CCSc1sccc1C1C2=C(CCCC2=O)N(c2cccnc2)C(=N)C1C#N` (stereo not drawn) [2-azanyl-4-(2-ethylsulfanylthiophen-3-yl)-5-oxidanylidene-1-pyridin-3-yl-4,6,7,8-tetrahydroquinoline-3-carbonitrile]: less than 4.18; for `N#CC1C(=N)C2=C(N3CCCCC3)CCCC2C1(C#N)C#N` (stereo not drawn) [3-Amino-4-piperidin-1-yl-5,6,7,7a-tetrahydro-indene-1,1,2-tricarbonitrile]: less than 4.18.
The same measure for `CCOc1cc(C2C3=C(CCCC3=O)N=C3CCCC(=O)C32)ccc1OCCO` (stereo not drawn) [9-[3-ethoxy-4-(2-hydroxyethoxy)phenyl]-2,3,4,5,6,7,9,10-octahydroacridine-1,8-dione]: less than 4.18.
`COc1ccc(NC(=O)Cc2sc3ncnn3c2O)cc1` [MLS000115464] had a pIC50 of less than 4.18.
The compound `Cc1cc(C(F)(F)F)nc(SCC(=O)Nc2nc(O)c(C)s2)n1` [N-(5-methyl-4-oxidanylidene-1,3-thiazol-2-yl)-2-[4-methyl-6-(trifluoromethyl)pyrimidin-2-yl]sulfanyl-ethanamide] showed a pIC50 of less than 4.18.
The same measure for `CC(C)C1=NC(=O)NC2CCCCC12` (stereo not drawn) [SMR000060291]: less than 4.18.
The compound `COc1ccc(C2=Nc3nnnn3C(c3ccc(F)cc3)C2)cc1` (stereo not drawn) [SMR000108015] gave a pIC50 of less than 4.18.
The compound `CCOC(=O)CC1=C(C(=O)OCC)C(c2ccc(C)o2)C(C#N)C(=N)O1` (stereo not drawn) [ethyl 6-amino-5-cyano-2-(2-ethoxy-2-oxoethyl)-4-(5-methyl-2-furyl)-4H-pyran-3-carboxylate] gave a negative logarithm of the IC50 (pIC50) of less than 4.18.

As usually defined, the pIC50 is the negative decadic logarithm of the IC50, by convention in mol/L. Read a high pIC50 as a small IC50.
